Experimental data from patent US11560372B2, “Heterocyclic compounds useful as modulators of acetylcholine receptors” (TAKEDA PHARMACEUTICAL COMPANY LIMITED, priority 2017, dated 2023).

Assays:
[1] = biological target: T1, human M1 receptor (hCHRM1) (Homo sapiens, UniProt P11229); assay: Measurement of M1 receptor positive allosteric modulator (M1PAM) activity, calcium fluorescence in CHO-K1 cells; format: cell-based; details: for activity (%) at 10 μM: 10 μM test compound, 100% = acetylcholine final concentration 1 μM, 0% = DMSO; for EC50: inflection point of concentration-dependent curve, in the presence of acetylcholine at EC20 concentration (final 0.8-1.0 nM), read-out: IP value
T1 construct: expressed in transfected cells
T1 sequence (P11229 1-460): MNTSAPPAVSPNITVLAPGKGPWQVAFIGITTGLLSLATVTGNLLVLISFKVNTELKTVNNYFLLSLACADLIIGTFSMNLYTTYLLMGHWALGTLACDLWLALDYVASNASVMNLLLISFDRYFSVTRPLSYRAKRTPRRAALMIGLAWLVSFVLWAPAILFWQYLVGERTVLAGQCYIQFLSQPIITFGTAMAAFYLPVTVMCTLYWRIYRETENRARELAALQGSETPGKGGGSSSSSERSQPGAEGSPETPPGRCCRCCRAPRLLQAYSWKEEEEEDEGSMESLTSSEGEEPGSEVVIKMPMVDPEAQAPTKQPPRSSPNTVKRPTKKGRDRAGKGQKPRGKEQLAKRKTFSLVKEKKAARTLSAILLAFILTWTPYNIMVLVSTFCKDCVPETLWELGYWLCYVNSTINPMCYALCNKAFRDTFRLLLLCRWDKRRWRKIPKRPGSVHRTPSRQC
Description: Measurement of M1 Receptor Positive Allosteric Modulator (M1PAM) Activity
The activity of a test compound in the presence of acetylcholine at EC20 concentration (final concentration 0.8-1.0 nM), which affords an action corresponding to about 20% of the maximum activity, was measured as PAM activity. The method is as follows. CHO-K1 cells stably expressing a human M1 receptor (hCHRM1) were plated on a 384-well black clear bottom plate (BD Falcon) at 5,000 cells/well, and cultured in an incubator at 37° C., 5% CO2 for 1 day. The medium in the cell plate was removed, and assay buffer A containing calcium indicator (Recording medium (DOJINDO LABORATORIES), 0.1% BSA (Wako Pure Chemical Industries, Ltd.), 2.5 μg/mL Fluo-4 AM (DOJINDO LABORATORIES), 0.08% Pluronic F127 (DOJINDO LABORATORIES), 1.25 mM probenecid (DOJINDO LABORATORIES)) was added at 30 μL/well. The cells were left standing in the incubator at 37° C., 5% CO2 for 30 min, and further left standing at room temperature for 30 min. A test compound prepared by diluting with assay buffer B (HBSS (Invitrogen), 20 mM HEPES (Invitrogen), 0.1% BSA) containing 3.2-4.0 nM acetylcholine was added at 10 μL/well, and the fluorescence was measured by FDSS/pCELL (Hamamatsu Photonics K.K.) for 1 min every for 1 second. With the definition that the amount of change in the fluorescence on addition of acetylcholine (final concentration 1 μM) is 100% and that on addition of DMSO instead of a test compound is 0%, the activity (%) of the test compound was calculated, and the inflection point in the concentration-dependent curve of the test compound was calculated as IP values.

[2] = biological target: T2, MDR1 (Homo sapiens, UniProt P08183); assay: MDR1 membrane permeability test; format: in vitro ADME; details: pH 7.4, efflux ratio (ER), Papp B to A / A to B, human MDR1-expressing LLC-PK1 cells, read-out: MDR1 substrate screening 1 μM (MDRSUB1)/Ratio (NUMBER)
T2 construct: expressed in transfected cells
T2 sequence (P08183 whole entry): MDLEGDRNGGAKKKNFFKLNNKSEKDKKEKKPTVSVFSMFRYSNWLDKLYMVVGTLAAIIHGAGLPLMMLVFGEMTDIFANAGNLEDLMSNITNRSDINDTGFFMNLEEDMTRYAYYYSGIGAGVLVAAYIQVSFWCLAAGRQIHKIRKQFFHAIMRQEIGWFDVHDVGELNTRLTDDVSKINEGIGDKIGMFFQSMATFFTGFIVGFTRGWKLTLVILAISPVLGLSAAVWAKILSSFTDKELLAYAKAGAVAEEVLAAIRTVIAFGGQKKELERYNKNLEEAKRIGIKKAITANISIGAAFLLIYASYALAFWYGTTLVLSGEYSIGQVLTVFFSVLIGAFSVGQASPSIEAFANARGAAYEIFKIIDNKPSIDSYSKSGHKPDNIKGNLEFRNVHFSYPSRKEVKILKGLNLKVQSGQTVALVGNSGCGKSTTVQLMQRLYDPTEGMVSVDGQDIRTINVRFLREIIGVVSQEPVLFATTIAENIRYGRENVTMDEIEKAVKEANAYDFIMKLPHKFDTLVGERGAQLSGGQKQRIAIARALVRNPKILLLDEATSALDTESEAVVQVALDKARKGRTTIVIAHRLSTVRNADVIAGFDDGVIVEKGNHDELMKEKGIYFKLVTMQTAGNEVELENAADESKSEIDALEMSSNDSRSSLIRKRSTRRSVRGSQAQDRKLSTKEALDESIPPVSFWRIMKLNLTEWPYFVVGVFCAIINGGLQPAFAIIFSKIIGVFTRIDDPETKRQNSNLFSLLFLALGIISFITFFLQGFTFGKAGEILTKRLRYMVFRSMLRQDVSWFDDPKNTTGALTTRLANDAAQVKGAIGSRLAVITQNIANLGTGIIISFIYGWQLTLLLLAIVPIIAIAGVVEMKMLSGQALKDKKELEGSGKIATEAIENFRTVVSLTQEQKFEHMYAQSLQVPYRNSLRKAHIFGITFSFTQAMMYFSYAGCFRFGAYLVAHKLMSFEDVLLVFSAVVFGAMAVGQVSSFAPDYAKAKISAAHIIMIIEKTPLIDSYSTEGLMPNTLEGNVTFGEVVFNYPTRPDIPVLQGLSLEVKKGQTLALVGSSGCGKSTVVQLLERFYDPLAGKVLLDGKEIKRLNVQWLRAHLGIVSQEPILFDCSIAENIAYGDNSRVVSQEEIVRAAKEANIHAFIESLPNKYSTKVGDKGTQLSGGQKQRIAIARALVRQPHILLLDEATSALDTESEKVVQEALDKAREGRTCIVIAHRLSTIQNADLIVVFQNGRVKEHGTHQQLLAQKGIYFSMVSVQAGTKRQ
In short: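 Human MDR1-expressing LLC-PK1 cells were grown for 3 days on 96-well polyethylene terephthalate Transwell supports (0.4 μm pores, 0.143 cm^2) seeded at 3.45×10^4 cells/well. After a 30 min preincubation in M199 medium with 10 mmol/L HEPES and 1% BSA (pH 7.4), drug was added apically or basolaterally. After 1 hr at 37° C, the opposite side was sampled and analyzed by LC-MS/MS. Efflux ratio was calculated from Papp B to A versus A to B.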

Row | SMILES | activity (%) at 10 μM [1] | EC50 [1] | efflux ratio at 1 hr, 1 μM [2]
1 | Cc1c(Cc2ccc(C(=O)NCCN3CCCC3=O)c(F)c2)cc2c(=O)n([C@H]3CCOC[C@@H]3O)cnc2c1C [Example 77, 1,5-anhydro-2,3-dideoxy-3-(6-(3-fluoro-4-((2-(2-oxopyrrolidin-1-yl)ethyl)carbamoyl)benzyl)-7,8-dimethyl-4-oxoquinazolin-3 (4H)-yl)-L-threo-pentitol] | 107% | 2 nM | 32
2 | Cc1c(Cc2ccc(C(=O)NCC3CC3)cc2)cc2c(=O)n([C@H]3CCOC[C@@H]3O)cnc2c1C [Example 29, 1,5-anhydro-3-(6-(4-((cyclopropylmethyl)carbamoyl)-benzyl)-7,8-dimethyl-4-oxoquinazolin-3 (4H)-yl)-2,3-dideoxy-L-threo-pentitol] | 112% | 1.6 nM | 12
3 | Cc1c(Cc2ccc(-c3cnn(C)c3)nc2)cc2c(=O)n([C@H]3CCOC[C@@H]3O)cnc2c1Cl [Example 11, 1,5-anhydro-3-(8-chloro-7-methyl-6-((6-(1-methyl-1H-pyrazol-4-yl)pyridin-3-yl)methyl)-4-oxoquinazolin-3(4H)-yl)-2,3-dideoxy-L-threo-pentitol] | 100% | 0.91 nM | 17
4 | Cc1c(Cc2ccc(-c3cn(C)nn3)cc2)cc2c(=O)n([C@H]3CCOC[C@@H]3O)cnc2c1C [Example 8, 1,5-anhydro-2,3-dideoxy-3-(7,8-dimethyl-6-(4-(1-methyl-1H-1,2,3-triazol-4-yl)benzyl)-4-oxoquinazolin-3(4H)-yl)-L-threo-pentitol] | 97% | 1.4 nM | 4.8
5 | Cc1c(Cc2ccc(-c3cn(C)nn3)nc2)cc2c(=O)n([C@H]3CCOC[C@@H]3O)nnc2c1C [Example 62, 1,5-anhydro-2,3-dideoxy-3-(7,8-dimethyl-6-((6-(1-methyl-1H-1,2,3-triazol-4-yl)pyridin-3-yl)methyl)-4-oxo-1,2,3-benzotriazin-3 (4H)-yl)-L-threo-pentitol] | 107% | 2.5 nM | 9.4
6 | COCCNC(=O)c1ccc(Cc2cc3c(=O)n([C@H]4CCOC[C@@H]4O)cnc3c(C)c2C)cc1 [Example 49, 1,5-anhydro-2,3-dideoxy-3-(6-(4-((2-methoxyethyl)carbamoyl)benzyl)-7,8-dimethyl-4-oxoquinazolin-3 (4H)-yl)-L-threo-pentitol] | 101% | 1.1 nM | 20
7 | Cc1c(Cc2ccc(C(=O)NC3(C)COC3)c(F)c2)cc2c(=O)n([C@H]3CCOC[C@@H]3O)cnc2c1C [Example 65, 1,5-anhydro-2,3-dideoxy-3-(6-(3-fluoro-4-((3-methyloxetan-3-yl)carbamoyl)benzyl)-7,8-dimethyl-4-oxoquinazolin-3 (4H)-yl)-L-threo-pentitol] | 109% | 3 nM | 15
8 | CNC(=O)c1ccc(Cc2cc3c(=O)n([C@H]4CCOC[C@@H]4O)cnc3c(C)c2C)cc1 [Example 18, 1,5-anhydro-2,3-dideoxy-3-(7,8-dimethyl-6-(4-(methylcarbamoyl)benzyl)-4-oxoquinazolin-3(4H)-yl)-L-threo-pentitol] | 106% | 1 nM | 24
9 | Cc1c(Cc2ccc(C(=O)NCC3(O)CC3)c(F)c2)cc2c(=O)n([C@H]3CCOC[C@@H]3O)cnc2c1C [Example 76, 1,5-anhydro-2,3-dideoxy-3-(6-(3-fluoro-4-(((1-hydroxycyclopropyl)methyl)-carbamoyl)benzyl)-7,8-dimethyl-4-oxoquinazolin-3 (4H)-yl)-L-threo-pentitol] | 106% | 1.9 nM | 15
